# Legend:
# [1] = biological target: NL20 human bronchial epithelial cells expressing human Z-AAT (Homo sapiens (Human), UniProt P01009, E366K); assay: AAT Function Assay (MSD Assay NL20-SI Cell Line); format: cell-based; details: functionally active AAT (AAT-hNE complex, MSD) in supernatant of NL20 cells expressing human Z-AAT; read-out: NL20 Functional EC50
# Method: A. AAT Function Assay (MSD Assay NL20-SI Cell Line)
# Alpha-1 antitrypsin (AAT) is a SERpIN (serine protease inhibitor) that inactivates enzymes by binding to them covalently. This assay measured the amount of functionally active AAT in a sample in the presence of the disclosed Compounds 1-227 by determining the ability of AAT to form an irreversible complex with human neutrophil Elastase (hNE). In practice, the sample (cell supernatant, blood sample, or other) was incubated with excess hNE to allow AAT-Elastase complex to be formed with all functional AAT in the sample. This complex was then captured to a microplate coated with an anti-AAT antibody. The complex captured to the plate was detected with a labeled anti-Elastase antibody and quantitated using a set of AAT standards spanning the concentration range present in the sample. Meso Scale Discovery (MSD) plate reader, Sulfo-tag labeling, and microplates were used to provide high sensitivity and wide dynamic range.
# Instrument(S): • Meso Sector S600 • Bravo • Washer dispenser • Multidrop Combi
# Day 1 Cell Culture • 1. Harvest NL20 human bronchial epithelial cells expressing human Z-AAT in OptiMEM™ containing Pen/Strep (P/S) • 2. Seed at 16,000 cells/well in 30 μL (384 well plate) • 3. Centrifuge plates briefly up to speed (1200 rpm) and place into 37° C. incubator overnight
# Day 2: Compound Addition and Coating Plates with Capture Antibody
# Compound Addition: • 1. Dispense 40 μL of OptiMEM™ (P/S) with doxycycline (1:1000 stock=0.1 μM final) to each well of the compound plate using a multidrop Combi in hood • 2. Remove cell plate from incubator, flip/blot and take immediately to Bravo to transfer compounds • 3. Return plates to incubator overnight
# Coat MSD Plates • 1. Dilute capture antibody (Polyclonal Goat anti-AAT) to 5 μg/mL (1:200) in PBS (no BSA). • 2. Dispense 25 μL of diluted capture antibody into all wells of MSD 384-well High Bind plate using the Multidrop equipped with a standard cassette. • 3. Incubate overnight at 4° C.
# Prepare Blocker A (BSA) Solutions • 1. Prepare solution of 5% MSD Blocker A (BSA) following the manufacturer's instructions. • 2. Further dilute the 5% MSD Blocker A in PBS to 1% (Blocker A) as needed.
# Block Plates • 1. Wash plate 1× with 50 μL Wash buffer (PBS+0.5% Tween 20), and adds 35 μL 5% Block A buffer to block non-specific binding on washer dispenser • 2. Rotate plates on shaker for 1 hour at 600 rpm
# Prepare M-AA T Standards • 1. Dilute M-AAT stock to 1.6 μg/mL in 1% BSA Blocker A (Stock in −70° C.); then prepare 12×1:2 serial dilutions in 1% Blocker A • 2. The top starting final concentration on MSD plate is 320 ng/mL. These dilutions correspond to a final concentration of 320, 160, 80, 40, 20, 10, 5, 2.5, 1.25, 0.625, 0.312, 0.156 ng/mL.
# Dilution Plate • 1. Add 80 μL of 1% Assay buffer to all wells except columns 1/24 (standards) with Multidrop Combi • 2. Add diluted standards to columns 1 and 24 • 3. Centrifuge dilution plates 1200 rpm briefly
# Cell Plate • 1. Aspirate columns which will have the standards from the cell plates in the hood using 16-pin aspirator
# Prepare Human Neutrophil Elastase (hNE) • 1. Prepare 1 μg/mL Human Neutrophil Elastase by diluting in 1% Blocker A. • a. Small 100 μg vial—add 1 mL PBS (100 μg/mL) • i. This can then be diluted 1:100 in 1% Assay Buffer for a final 1 μg/mL concentration
# MSD—add hNE (20 μL/well) • 1. After the MSD plate has blocked for at least 1 hour, wash plate 1× with 50 μL Wash buffer (PBS+0.5% Tween 20) and then add 20 μL hNE to each well
# Bravo—Cell Plate—Dilution Plate—MSD Plate
# Using the Bravo aspirate 10 μL from the cell plate, transfer to the dilution plate (9-fold dilution) • 1. Mix 25 μL 3×, then aspirate 5 μL, transfer to MSD plate (5-fold dilution) • 2. Mix 10 μL 3×. Total dilution is 45 fold. • 3. Shake plates at 600 rpm for 1.5 hours
# Add Functional Detection hNE Antibody • 1. Wash plate 1× with wash buffer • 2. […]
# [2] = biological target: purified Z-AAT protein from human plasma (Homo sapiens (Human), UniProt P01009, E366K); assay: Biochemical Assay (Z-AAT Elastase Activity Assay); details: purified Z-AAT pre-incubated with compound 1 hour, then human neutrophil elastase and fluorescent substrate
# From the text: B. Biochemical Assay (Z-AAT Elastase Activity Assay)
# This assay measured the modulation of Compounds 1-227 on Z-AAT SERpIN activity using purified Z-AAT protein and purified human neutrophil elastase (hNE). Normally, when active monomeric Z-AAT encounters a protease such as trypsin or elastase, it forms a 1:1 covalent “suicide” complex in which both the AAT and protease are irreversibly inactivated. However, compounds binding to Z-AAT can lead to a decrease in SERpIN activity. In such cases, when a protease encounters compound-bound Z-AAT, the protease cleaves and inactivates Z-AAT without itself being inactivated.
# Reagents • PBS buffer (media prep)+0.01% BRIJ35 detergent (Calbiochem catalog #203728) Opti-MEM media (Fisher 11058-021) • Human neutrophil elastase (hNE, Athens Research #16-14-051200) • 3.4 μM stock (0.1 mg/mL) prepared in 50 mM Na Acetate, pH 5.5, 150 mM NaCl, stored at −80° C. • Elastase substrate V (ES V, fluorescent peptide substrate MeOSuc-Ala-Ala-Pro-Val-AMC, Calbiochem catalog #324740) • 20 mM stock in DMSO, stored at −20° C. • Purified Z-AAT protein from human plasma; • 12.9 μM (0.67 mg/mL) Z-AAT Vertex Cambridge Sample 4942, from patient • #061-SSN, stored at −80 C
# Plates • Corning 4511 (384 well black low volume)
# Instruments • PerkinElmer® EnVision™
# Pre-Incubation of Z-AAT with Compounds • 1. 7.5 μL of Z-AAT (20 nM) was incubated with compounds 1-227 in a GCA plate for 1 hour at room temperature
# Addition of hNE • 1. 7.5 ul of HNE solution (3 nM in PBS+0.01% BRIJ35) added into GCA plate • 2. Incubate plate for 30 minutes to allow Z-AAT/HNE suicide complex formation.
# Addition of Substrate and Read Plate on PE Envision • 1. 7.5 μL of substrate (300 μM solution of elastase substrate (ES V) in PBS+0.01% BRIJ35) dispensed per well into GCA plate • 2. Immediately read on Envision.
# Chain of purified Z-AAT protein from human plasma (P01009 25-418 E366K limits assumed): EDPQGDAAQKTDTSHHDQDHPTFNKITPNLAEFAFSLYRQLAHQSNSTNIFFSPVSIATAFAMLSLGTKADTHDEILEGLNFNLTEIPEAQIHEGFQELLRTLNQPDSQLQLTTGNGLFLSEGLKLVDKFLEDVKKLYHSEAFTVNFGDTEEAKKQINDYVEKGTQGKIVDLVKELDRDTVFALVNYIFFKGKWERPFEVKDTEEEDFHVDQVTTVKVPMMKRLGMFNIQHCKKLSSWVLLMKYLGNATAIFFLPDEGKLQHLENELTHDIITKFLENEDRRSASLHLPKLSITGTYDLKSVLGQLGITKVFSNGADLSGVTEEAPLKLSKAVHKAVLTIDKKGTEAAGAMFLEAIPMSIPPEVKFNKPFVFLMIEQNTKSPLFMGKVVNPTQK
# Chain of NL20 human bronchial epithelial cells expressing human Z-AAT (P01009 25-418 E366K limits assumed): as above
Structure (SMILES),EC50 [1] [nM],IC50 [2] [nM]
Cc1cc(-n2c(C3CCS(=O)(=O)CC3)c(C[C@H]3CC[C@H](C(=O)O)CC3)c3cc(O)ccc32)ccc1F [Compound 44],> 2000,> 30000
O=C(O)[C@H]1C[C@H](c2c(C3CCOCC3)n(-c3ccc(F)cc3)c3ccc(O)cc32)C1 [Compound 45],> 2000,> 30000
O=C(O)[C@H]1C[C@@H](c2c(C3CCOCC3)n(-c3ccc(F)cc3)c3ccc(O)cc32)C1 [Compound 46],> 2000,> 30000
Cc1cc(-n2c(C3CCS(=O)(=O)CC3)c(C3CC4(CC(C(=O)O)C4)C3)c3cc(O)ccc32)ccc1F (centres unmarked) [Compound 47],> 2000,> 30000
C[C@]1(C(=O)O)C[C@H](c2c(C3CCOCC3)n(-c3ccc(F)cc3)c3ccc(O)cc32)C1 [Compound 48],> 2000,> 30000
C[C@]1(C(=O)O)C[C@@H](c2c(C3CCOCC3)n(-c3ccc(F)cc3)c3ccc(O)cc32)C1 [Compound 49],> 2000,> 30000
O=C(O)[C@H]1CC2(C1)C[C@H](c1c(C3CCOCC3)n(-c3ccc(F)cc3)c3ccc(O)cc31)C2 (some centres unmarked) [Compound 50],500 to 2000,> 30000
O=C(O)[C@H]1CC2(C1)C[C@H](c1c(C3CCOCC3)n(-c3ccc(F)cc3)c3ccc(O)cc31)C2 (some centres unmarked) [Compound 51],500 to 2000,> 30000
C[C@]1(C(=O)O)C[C@@H](c2c(C3CCOCC3)n(-c3ccccc3)c3ccc(O)cc32)C1 [Compound 52],> 2000,> 30000
O=C(O)[C@]1(C(F)(F)F)C[C@@H](c2c(C3CCOCC3)n(-c3ccc(F)c(F)c3)c3ccc(O)cc32)C1 [Compound 53],> 2000,> 30000
O=C(O)C1CC2(C1)CC(c1c(C3CCOCC3)n(-c3ccccc3)c3ccc(O)cc13)C2 (centres unmarked) [Compound 54],> 2000,> 30000
Cc1cc(-n2c(C3CCOCC3)c([C@H]3CC[C@@H](C(=O)O)CC3)c3cc(O)ccc32)ccc1F [Compound 55],> 2000,> 30000
Cc1cc(-n2c(C3CCOCC3)c([C@H]3CC[C@H](C(=O)O)CC3)c3cc(O)ccc32)ccc1F [Compound 56],500 to 2000,> 30000
CC(C)c1c([C@H]2CC3(C[C@H](C(=O)O)C3)C2)c2cc(O)ccc2n1-c1ccc(F)c(F)c1 (some centres unmarked) [Compound 57],< 500,< 2000
CC(C)c1c([C@H]2CC3(C[C@H](C(=O)O)C3)C2)c2cc(O)ccc2n1-c1ccc(F)c(F)c1 (some centres unmarked) [Compound 58],500 to 2000,2000 to 5000
Cc1cc(-n2c(C(C)C)c(CCC(F)(F)C(=O)O)c3cc(O)ccc32)ccc1F [Compound 59],> 2000,> 5000
Cc1cc(-n2c(C(C)C)c([C@H]3C[C@@](C(=O)O)(C(F)(F)F)C3)c3cc(O)ccc32)ccc1F [Compound 60],< 500,> 5000

Structure (SMILES),EC50 [1] [nM],IC50 [2] [nM]
Cc1cc(-n2c(C(C)C)c([C@H]3C[C@](C(=O)O)(C(F)(F)F)C3)c3cc(O)ccc32)ccc1F [Compound 61],500 to 2000,> 5000
Cc1cc(-n2c(C(C)C)c(CCC(C)(C)C(=O)O)c3cc(O)ccc32)ccc1F [Compound 62],500 to 2000,> 30000
Cc1cc(-n2c(C(C)C)c([C@H]3C[C@@H](CC(=O)O)C3)c3cc(O)ccc32)ccc1F [Compound 63],500 to 2000,> 5000
Cc1cc(-n2c(C(C)C)c(C3CCOC(C(=O)O)C3)c3cc(O)ccc32)ccc1F (centres unmarked) [Compound 64],> 2000,> 30000
Cc1cc(-n2c(C(C)C)c(C3CCOC(C(=O)O)C3)c3cc(O)ccc32)ccc1F (centres unmarked) [Compound 65],> 2000,> 30000
CO[C@]1(C(=O)O)C[C@H](c2c(C(C)C)n(-c3ccc(F)c(C)c3)c3ccc(O)cc32)C1 [Compound 66],500 to 2000,> 30000
CO[C@]1(C(=O)O)C[C@@H](c2c(C(C)C)n(-c3ccc(F)c(C)c3)c3ccc(O)cc32)C1 [Compound 67],> 2000,> 30000
Cc1cc(-n2c(C(C)C)c([C@H]3C[C@H](C(=O)O)C3)c3cc(O)c(F)cc32)ccc1F [Compound 68],500 to 2000,> 5000
Cc1cc(-n2c(C(C)C)c([C@H]3C[C@@H](C(=O)O)C3)c3cc(O)c(F)cc32)ccc1F [Compound 69],> 2000,> 5000
CC(C)c1c(CCC(C)(C)C(=O)O)c2cc(O)ccc2n1-c1ccc(F)cc1 [Compound 70],500 to 2000,> 30000
CC(C)c1c(CC2(C(=O)O)CC2)c2cc(O)ccc2n1-c1ccc(F)cc1 [Compound 71],500 to 2000,> 5000
COCC(C)(C)c1c(C2CC(C(=O)O)C2)c2cc(O)ccc2n1-c1ccc(F)c(C)c1 (centres unmarked) [Compound 72],> 2000,> 30000
COCC(C)(C)c1c([C@H]2C[C@H](C(=O)O)C2)c2cc(O)ccc2n1-c1ccc(F)c(C)c1 [Compound 73],> 2000,> 30000
CC(C)c1c([C@H]2C[C@](C)(C(=O)O)C2)c2cc(O)ccc2n1-c1ccc(F)c(Cl)c1 [Compound 75],500 to 2000,> 5000
CC(C)c1c([C@H]2C[C@@](C)(C(=O)O)C2)c2cc(O)ccc2n1-c1ccc(F)c(Cl)c1 [Compound 76],> 2000,> 30000
CC(C)c1c([C@H]2C[C@H](C(=O)O)C2)c2cc(O)ccc2n1-c1ccc(F)c(Cl)c1 [Compound 77],500 to 2000,> 5000
CC(C)c1c([C@H]2C[C@@H](C(=O)O)C2)c2cc(O)ccc2n1-c1ccc(F)c(Cl)c1 [Compound 78],> 2000,> 5000

# Reference: patent US20230339915A1 (Vertex Pharmaceuticals Incorporated, priority 2020, published 2023)
